Experimental data: EP3827825A1, “USE OF 3, 4-DIARYLPYRAZOLES AS ANTIBACTERIAL AGENTS” (Wageningen Universiteit, priority 2019, dated 2021)
Values after ≈ are worked out from the molar mass of the structure shown.

Columns and labels:
S. aureus Newman = experiment: Minimal inhibitory concentration (MIC), double-dilution in broth, OD600; assay type: cell-based, Staphylococcus aureus Newman; conditions: unit assumed
Protocol: (§1) In short, a stock solution of 5 mg/mL of HKIs in DMSO was made. This stock was diluted to 50 µg/mL in broth in a 96 well plate. Dilutions were made (factor 2) directly in the plate with a multi-channel pipet. Bacteria cultured in suspension overnight were then added to the plate (except negative control) and the plate was incubated for 24 hours. After 24 hours the OD600 was measured using a spectrophotometer. A positive control (with bacteria, without HKI) was also measured on each plate.
Bacterial strains used in this study for antibacterial susceptibility testing (Table S2) were propagated using standard microbiological procedures. Minimal inhibitory concentrations (MICs) were determined following a standard double-dilution method (42), 73. […] For M. marinum, MICs were determined in Middlebrook 7H9 broth (Difco) and MICs were determined after 3 days incubation at 30 °C.
(§2) Grow the bacterial colonies to be tested from single colonies on an agar plate in LB broth or suitable bacterial growth medium overnight at 37°C. Prepare a 5 mg/mL stock solution of compounds to be tested in DMSO. One 96-well plate per bacterial strain was prepared. First, put 50 uL of medium to each well. Add 48 µL of medium to all wells in row A. Pipet 2 µL of antimicrobial master stock into the top well (row A). Beware, the antimicrobial concentration will be diluted 2x after adding the bacterial culture. Total volume in each well will be 100 µL. In A11, pipet 2 µL of DMSO. Make a serial dilution from row A to row H, pipetting 50 µL from the previous row into the new one. Mix well by pipetting up and down. Discard the last 50 µL so that there is 50 µl in each well In a clean, new plastic pipetting cup, dilute the overnight bacterial culture 100 times. Add 100 µL of bacterial overnight culture to 9900 µL of medium. Mix the suspension well. Once the serial dilutions are complete for all antimicrobial compounds, add 50 µL of diluted overnight bacterial culture to each well (except column 12). Mix by pipetting or put the plate on the shaker. Per 2 plates, close with parafilm around the edges and place in the incubator overnight. After overnight culturing, measure bacterial growth on the SpectraMax. The lowest concentration where no growth is observed is the MIC. To determine the MIB pipette 5 µL from each well of the 96 well plate where now growth was observed on to an LB agar plate, without antimicrobial. Put the plates in the incubator to grow overnight. The minimal concentration where no growth can be seen on the agar plate is the MBC.

S. suis = experiment: as above; assay type: cell-based, Streptococcus suis; conditions: unit assumed
Protocol: as §1, with “each plate. The MICs were not determined in duplo/triplicate in the same experiment, however, the MICs of several HKIs were measured in different experiments and no major differences (max. 1x dilution) were found in the MICs between the experiments.” for “each plate.”
(§3) Bacterial strains used in this study for antibacterial susceptibility testing (Table S2) were propagated using standard microbiological procedures. Minimal inhibitory concentrations (MICs) were determined following a standard double-dilution method (42), 73. MICs were recorded as the lowest concentration of the compound where no visible growth was observed. After plating the dilutions around the MIC or growing them in fresh MH media, minimal bactericidal concentration (MBC) was recorded as the lowest concentration of the compound at which no colonies were formed or no growth was observed, respectively. For M. marinum, MICs were determined in Middlebrook 7H9 broth (Difco) and MICs were determined after 3 days incubation at 30 °C.
as §2

P. multocida = experiment: as above; assay type: cell-based, Pasteurella multocida; conditions: unit assumed
Protocol: as §1, with “each plate. The MICs were not determined in duplo/triplicate in the same experiment, however, the MICs of several HKIs were measured in different experiments and no major differences (max. 1x dilution) were found in the MICs between the experiments.” for “each plate.”
as §3, §2

M. marinum = experiment: Minimal inhibitory concentration (MIC), Middlebrook 7H9 broth, 3 days at 30 °C; assay type: cell-based, Mycobacterium marinum; conditions: unit assumed
Protocol: as §1, with “each plate. The MICs were not determined in duplo/triplicate in the same experiment, however, the MICs of several HKIs were measured in different experiments and no major differences (max. 1x dilution) were found in the MICs between the experiments.” for “each plate.”
as §3, §2

E. coli JW5503 = assay type: cell-based, Escherichia coli; conditions: unit assumed
Protocol: as §1, with “each plate. The MICs were not determined in duplo/triplicate in the same experiment, however, the MICs of several HKIs were measured in different experiments and no major differences (max. 1x dilution) were found in the MICs between the experiments.” for “each plate.”
as §3, §2

E. faecium Van A = experiment: Minimal inhibitory concentration (MIC), double-dilution in broth, OD600; assay type: cell-based, Enterococcus faecium; conditions: unit assumed
Protocol: as §1, with “each plate. The MICs were not determined in duplo/triplicate in the same experiment, however, the MICs of several HKIs were measured in different experiments and no major differences (max. 1x dilution) were found in the MICs between the experiments.” for “each plate.”
as §3, §2

NRK-52E = experiment: Cell toxicity, Alamar blue assay, 24 hours exposure; assay type: cell-based; conditions: for IC50: Rattus norvegicus, read-out: IC50 NRK-52E (50 mg/mL stock)
Protocol: Toxicity was primarily determined by measuring cytotoxicity with the Alamar blue assay. In short, cells (HEK293, NRK-52E and Caco-2) were plated in 96-well plates and cultured overnight. HKI compounds were diluted to concentrations ranging from 0.39 to 500 µg/mL in serum-free medium and added to the cells.
After exposure, cells were incubated for 24 hours. Experiments were mostly performed by single measurement. […] After 24 hours HKIs were removed from the cells and Alamar blue was added, incubated for 45 minutes and fluorescence was measured on a spectrophotometer. Alamar blue measures the conversion of blue, low fluorescent resazurin into high fluorescent pink resorufin. This conversion can only be made in viable mitochondria in viable cells and therefore this dye provides a measure for cytotoxicity.

SMILES	MIC S. aureus Newman (S. aureus Newman) [µg/mL]	MIC S. suis (S. suis) [µg/mL]	MIC P. multocida (P. multocida) [µg/mL]	MIC M. marinum (M. marinum) [µg/mL]	MIC E. coli JW5503 (E. coli JW5503) [µg/mL]	MIC E. faecium Van A (E. faecium Van A) [µg/mL]	IC50 (NRK-52E) [µg/mL]	IC50 NRK-52E (50 mg/mL stock) (NRK-52E; 50 mg/mL stock)
C=C(C)COc1ccc(-c2[nH]nc(C(F)(F)F)c2-c2ccc(OC)cc2)c(O)c1 [Sep-7, 2-[4-(4-methoxyphenyl)-5-(trifluoromethyl)-1∼{H}-pyrazol-3-yl]-5-(2-methylallyloxy)phenol]	6.25 (≈ 15.5 µM)	12.5 (≈ 30.9 µM)	> 50	> 50	6.25 (≈ 15.5 µM)	12.5 (≈ 30.9 µM)	~7.49 (≈ 18.5 µM)	–
COc1ccc(-c2c(C(F)(F)F)n[nH]c2-c2ccc(OCc3ccccc3F)cc2O)cc1 [Sep-8, 5-(2-fluorobenzyl)oxy-2-[4-(4-methoxyphenyl)-5-(trifluoromethyl)-1∼{H}-pyrazol-3-yl]phenol]	3.13 (≈ 6.83 µM)	12.5 (≈ 27.3 µM)	> 50	> 50	50 (≈ 109 µM)	6.25 (≈ 13.6 µM)	~14.5 (≈ 31.7 µM)	–
Oc1cc(OCc2c(F)cccc2Cl)ccc1-c1[nH]nc(C(F)(F)F)c1-c1ccc(Cl)cc1 [Sep-11, 5-(2-chloro-6-fluorobenzyl)oxy-2-[4-(4-chlorophenyl)-5-(trifluoromethyl)-1∼{H}-pyrazol-3-yl]phenol]	3.13 (≈ 6.29 µM)	12.5 (≈ 25.1 µM)	> 50	> 50	> 50	6.25 (≈ 12.6 µM)	11.8 (≈ 23.8 µM)	–
O=[N+]([O-])c1ccc(COc2ccc(-c3[nH]nc(C(F)(F)F)c3-c3ccc(Cl)cc3)c(O)c2)cc1 [Sep-12, 2-[4-(4-chlorophenyl)-5-(trifluoromethyl)-1∼{H}-pyrazol-3-yl]-5-(4-nitrobenzyl)oxyphenol]	3.13 (≈ 6.39 µM)	12.5 (≈ 25.5 µM)	> 50	50 (≈ 102 µM)	> 50	12.5 (≈ 25.5 µM)	14.7 (≈ 30.1 µM)	–
COc1ccc(-c2c(C(F)(F)F)n[nH]c2-c2ccc(OCc3ccc(F)cc3)cc2O)cc1 [Sep-14, 5-(4-fluorobenzyl)oxy-2-[4-(4-methoxyphenyl)-5-(trifluoromethyl)-1∼{H}-pyrazol-3-yl]phenol]	12.5 (≈ 27.3 µM)	25 (≈ 54.5 µM)	> 50	> 50	25 (≈ 54.5 µM)	12.5 (≈ 27.3 µM)	~16.6 (≈ 36.3 µM)	–
C=C(C)COc1ccc(-c2[nH]nc(C(F)(F)F)c2-c2ccccc2OC)c(O)c1 [Sep-15, 2-[4-(2-methoxyphenyl)-5-(trifluoromethyl)-1∼{H}-pyrazol-3-yl]-5-(2-methylallyloxy)phenol]	3.13 (≈ 7.74 µM)	12.5 (≈ 30.9 µM)	> 50	50 (≈ 124 µM)	6.25 (≈ 15.5 µM)	6.25 (≈ 15.5 µM)	~7.62 (≈ 18.8 µM)	–
COc1ccccc1-c1c(C(F)(F)F)n[nH]c1-c1ccc(OCc2ccc(C)cc2)cc1O [Sep-16, 2-[4-(2-methoxyphenyl)-5-(trifluoromethyl)-1∼{H}-pyrazol-3-yl]-5-(4-methylbenzyl)oxy-phenol]	6.25 (≈ 13.8 µM)	25 (≈ 55 µM)	> 50	> 50	50 (≈ 110 µM)	12.5 (≈ 27.5 µM)	~8.72 (≈ 19.2 µM)	–
COc1ccccc1-c1c(C(F)(F)F)n[nH]c1-c1ccc(OCc2ccccc2)cc1O [Sep-17, 5-benzoxy-2-[4-(2-methoxyphenyl)-5-(trifluoromethyl)-1∼{H}-pyrazol-3-yl]phenol]	6.25 (≈ 14.2 µM)	25 (≈ 56.8 µM)	> 50	> 50	12.5 (≈ 28.4 µM)	12.5 (≈ 28.4 µM)	~8.97 (≈ 20.4 µM)	–
O=[N+]([O-])c1ccc(COc2ccc(-c3[nH]nc(C(F)(F)F)c3-c3ccccc3)c(O)c2)cc1 [Sep-18, 5-(4-nitrobenzyl)oxy-2-[4-phenyl-5-(trifluoromethyl)-1∼{H}-pyrazol-3-yl]phenol]	6.25 (≈ 13.7 µM)	12.5 (≈ 27.4 µM)	> 50	> 50	12.5 (≈ 27.4 µM)	12.5 (≈ 27.4 µM)	~14.7 (≈ 32.3 µM)	–
Oc1ccc(-c2n[nH]c(C(F)(F)F)c2-c2ccc(Br)cc2)c(O)c1 [Sep-20, 4-[4-(4-bromophenyl)-5-(trifluoromethyl)-1∼{H}-pyrazol-3-yl]resorcinol]	6.25 (≈ 15.7 µM)	25 (≈ 62.6 µM)	> 50	> 50	6.25 (≈ 15.7 µM)	25 (≈ 62.6 µM)	–	7.58
COc1ccc(-c2c(-c3ccc(OCc4ccc(C)cc4)cc3O)n[nH]c2C(F)(F)F)cc1OC [Sep-27, 2-[4-(3,4-dimethoxyphenyl)-5-(trifluoromethyl)-1∼{H}-pyrazol-3-yl]-5-(4-methylbenzyl)oxy-phenol]	3.13 (≈ 6.46 µM)	50 (≈ 103 µM)	> 50	50 (≈ 103 µM)	> 50	> 50	~17.6 (≈ 36.3 µM)	–
COc1ccc(-c2c(-c3ccc(OCc4ccccc4)cc3O)n[nH]c2C(F)(F)F)cc1OC [Sep-28, 5-benzoxy-2-[4-(3,4-dimethoxyphenyl)-5-(trifluoromethyl)-1∼{H}-pyrazol-3-yl]phenol]	12.5 (≈ 26.6 µM)	> 50	> 50	> 50	25 (≈ 53.1 µM)	> 50	~17.3 (≈ 36.7 µM)	–
COc1ccccc1-c1c(-c2ccc(OCC=C(C)C)cc2O)n[nH]c1C(F)(F)F [Sep-30, 2-[4-(2-methoxyphenyl)-5-(trifluoromethyl)-1∼{H}-pyrazol-3-yl]-5-(3-methylbut-2-enoxy)phenol]	6.25 (≈ 14.9 µM)	25 (≈ 59.7 µM)	> 50	> 50	6.25 (≈ 14.9 µM)	12.5 (≈ 29.9 µM)	~17.2 (≈ 41.2 µM)	–
